This passage reports IC50 results from patent US10179769B2, “Histone demethylase inhibitors” (CELGENE QUANTICEL RESEARCH, INC., priority 2012, dated 2019).

Where only a bound is given, the exact number is not on record here.

JMJD2C, sequence (Q9H3R0 2-372): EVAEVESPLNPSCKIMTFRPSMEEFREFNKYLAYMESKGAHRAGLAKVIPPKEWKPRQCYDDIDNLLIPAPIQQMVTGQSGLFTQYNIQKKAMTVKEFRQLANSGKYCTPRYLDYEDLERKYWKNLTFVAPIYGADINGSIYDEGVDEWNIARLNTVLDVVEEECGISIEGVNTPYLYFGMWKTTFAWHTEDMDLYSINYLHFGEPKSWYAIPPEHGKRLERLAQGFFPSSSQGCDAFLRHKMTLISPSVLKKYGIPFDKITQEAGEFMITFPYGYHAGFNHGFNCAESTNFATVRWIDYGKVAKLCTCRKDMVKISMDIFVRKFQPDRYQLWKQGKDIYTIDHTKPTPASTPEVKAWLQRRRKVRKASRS

The experiment has as its target JMJD2C (Homo sapiens (Human), UniProt Q9H3R0). Put plainly: JMJD2C TR-FRET enzyme inhibition assay. The format is biochemical. Conditions: H3K9me3-biotin peptide. The text has this: This assay determines the ability of a test compound to inhibit Jarid1A, Jarid1B, and JMJD2C demethylase activity. Baculovirus expressed Jarid1A (GenBank Accession #NM_001042603, AA1-1090) was purchased from BPS Bioscience (Cat#50110). Baculovirus expressed Jarid1B (GenBank Accession #NM_006618, AA 2-751) was purchased from BPS Bioscience (Cat #50121) or custom made by MolecularThroughput. Baculovirus-expressed JMJD2C (GenBank Accession #BC143571, AA 2-372) was purchased from BPS Bioscience (Cat#50105).
The ability of test compounds to inhibit the activity of JMJD2C was determined in 384-well plate format under the following reaction conditions: 0.3 nM JMJD2C, 300 nM H3K9me3-biotin labeled peptide (Anaspec cat #64360), 2 μM alpha-ketoglutaric acid in assay buffer of 50 mM HEPES, pH7.3, 0.005% Brij35, 0.5 mM TCEP, 0.2 mg/ml BSA, 50 μM sodium L-ascorbate, and 2 μM ammonium iron(II) sulfate. Reaction product was determined quantitatively by TR-FRET after the addition of detection reagent Phycolink Streptavidin-allophycocyanin (Prozyme) and Europium-anti-di-methylated histone H3 lysine 9 (H3K9me2) antibody (PerkinElmer) in the presence of 5 mM EDTA in LANCE detection buffer (PerkinElmer) at a final concentration of 50 nM and 1 nM, respectively.
The reaction mixture was incubated at room temperature for 30 min, and terminated by the addition of 6 μl of 5 mM EDTA in LANCE detection buffer containing 100 nM Phycolink Streptavidin-allophycocyanin and 2 nM Europium-anti-H3K9me2 antibody. Plates were read by EnVisionMultilabel Reader in TR-FRET mode (excitation at 320 nm, emission at 615 nm and 665 nm) after 1 hr incubation at rt. A ratio was calculated (665/615) for each well and fitted to determine inhibition constant (IC50).
On to “3-{[(6-chloro-1,2,3,4-tetrahydronaphthalen- 1-yl)methyl]-amino}pyridine-4- carboxylic acid [Example 68]”, for which the concentration for half-maximal inhibition (IC50) is 100 to 1000 nM.
On to “3-{[(6-chloro-1-hydroxy-1,2,3,4- tetrahydronaphthalen-1-yl)methyl]amino} pyridine-4-carboxylic acid [Example 67]”, for which the half-inhibitory concentration (IC50) fell in the range of 100 to 1000 nM.
In the case of “3-{[(7-fluoro-3,4-dihydro-2H-chromen-4- yl)methyl]-amino}pyridine-4-carboxylic acid [Example 65]” it was less than 100 nM.
